# Results published in article PMC4377985, “Cytotoxic and Antibacterial Angucycline- and Prodigiosin- Analogues from the Deep-Sea Derived Streptomyces sp. SCSIO 11594” (Marine Drugs, 2015).
# Read-outs that look alike come from different tables or passages of the source.
# Columns and labels:
# [1] = in vitro cytotoxicity, MTT; assay type: cell-based; settings: human, normal hepatic cell line HL7702, MTT, n = 3, mean ± SD
# Protocol: (§1) The anticancer activity of the related natural products has been described in a number of literatures, and the structure activity relationships of related synthetic natural products have been reported.
# (§2) IC50 values were calculated using GraphPad Prism 5 software. All data were obtained in triplicate and are presented as means ± SD.
# [2] = tested on: human breast adenocarcinoma cell line MCF-7; assay: in vitro cytotoxicity, MTT; assay type: cell-based
# Protocol: as §1, §2
# [3] = tested on: human hepatocarcinoma cancer cell line HepG2; assay: in vitro cytotoxicity, MTT; assay type: cell-based
# Protocol: as §1, §2
# [4] = tested on: human lung cancer cell line A549; assay: in vitro cytotoxicity, MTT; assay type: cell-based
# Protocol: as §1, §2
# [5] = tested on: human nasopharyngeal carcinoma cell line CNE2; assay: in vitro cytotoxicity, MTT; assay type: cell-based
# Protocol: as §1, §2
# [6] = tested on: four human cancer cell lines A549, CNE2, HepG2, MCF-7; assay: in vitro cytotoxicity, MTT, panel of four cancer cell lines; assay type: cell-based; settings: for estimated therapeutic ratio (TR): comparison of tumor cell-derived IC50 values with HL7702 IC50; for fold more cytotoxic/potent than the positive control cisplatin: relative to cisplatin, cancer cell lines
# Protocol: Compounds 1–5 were tested for potential in vitro cytotoxicity against human lung cancer cell line A549, human nasopharyngeal carcinoma cell line CNE2, human breast adenocarcinoma cell line MCF-7, human hepatocarcinoma cancer cell line HepG2, and the normal hepatic cell line HL7702. […] The anticancer activity of the related natural products has been described in a number of literatures, and the structure activity relationships of related synthetic natural products have been reported.
# Compounds 1–5 were evaluated for cytotoxic activity using four human cancer cell lines, A549, CNE2, HepG2, MCF-7, one normal hepatic cell line HL7702 and previously reported MTT methodologies. IC50 values were calculated using GraphPad Prism 5 software. All data were obtained in triplicate and are presented as means ± SD. Cisplatin was used as a positive control.
# MRSE shhs-E1 = assay: antibacterial activity, dilution susceptibility test; assay type: cell-based, methicillin-resistant Staphylococcus epidermidis; settings: Staphylococcus epidermidis
# Protocol: (§3) The antibacterial activities of compounds 1–5 were evaluated using MRSE shhs-E1, methicillin-resistant Staphylococcus aureus (MRSA) shhs-A1, Staphylococcus aureus ATCC 29213, Enterococcus faecalis ATCC29212, Escherichia coli ATCC 25922, Micrococcus luteus, and multidrug resistant Pseudomonas aeruginosa.
# (§4) The antibacterial activities of compounds 1–5 were assessed using seven strains of pathogenic bacteria including MRSE shhs-E1, MRSA shhs-A1, Staphylococcus aureus ATCC 29213, Enterococcus faecalis ATCC29212, Escherichia coli ATCC 25922, Micrococcus luteus, and multidrug resistant Pseudomonas aeruginosa. Dilution antimicrobial susceptibility tests for aerobic bacteria were carried out as previously reported.
# MRSA shhs-A1 = assay: as above; assay type: cell-based, methicillin-resistant Staphylococcus aureus; settings: Staphylococcus aureus
# Protocol: as §3, §4
# [7] = tested on: Enterococcus faecalis ATCC29212; assay: as above; assay type: cell-based
# Protocol: as §3, §4
# [8] = tested on: Escherichia coli ATCC 25922; assay: as above; assay type: cell-based; settings: ATCC25922
# Protocol: as §3, §4
# Micrococcus luteus = assay: as above; assay type: cell-based
# Protocol: as §3, §4
# [9] = tested on: Staphylococcus aureus ATCC 29213; assay: as above; assay type: cell-based; settings: ATCC29213
# Protocol: as §3, §4
# [10] = tested on: multidrug resistant Pseudomonas aeruginosa; assay: as above; assay type: cell-based
# Protocol: as §3, §4
# [11] = MCF7, MCF-7, MTT, n = 3, mean ± SD, read-out: in vitro cytotoxicity IC50, MCF-7
# [12] = HepG2, MTT, n = 3, mean ± SD, read-out: in vitro cytotoxicity IC50, HepG2
# [13] = A549, MTT, n = 3, mean ± SD, read-out: in vitro cytotoxicity IC50, A549
# [14] = CNE-2, CNE2, MTT, n = 3, mean ± SD, read-out: in vitro cytotoxicity IC50, CNE2
SMILES,IC50 ([1]; HL7702 normal hepatic cells),"IC50 [2, 11]","IC50 [3, 12]","IC50 [4, 13]","IC50 [5, 14]",estimated therapeutic ratio (TR) [6],fold more cytotoxic/potent than the positive control cisplatin [6],MIC (MRSE shhs-E1; MRSE),MIC (MRSA shhs-A1),MIC [7],MIC [8],MIC (Micrococcus luteus),MIC [9],MIC [10],further results
"Cc1cc(O)c2c3c(ccc2c1)C(=O)c1c(ccc([C@H]2C[C@@H](O)[C@H](O[C@H]4CC[C@@H](O)[C@H](C)O4)[C@@H](C)O2)c1O)C3=O [Compound 1, marangucycline A]",> 50 µM,> 50 µM,> 50 µM,> 50 µM,> 50 µM,,,,,,,,,,
"Cc1cc(O)c2c3c(ccc2c1)C(=O)c1c(ccc(C2CC4OC5CC(=O)C(C)OC5OC4C(C)O2)c1O)C3=O (stereo not shown) [Compound 2, marangucycline B]",3.67 ± 0.07 µM,0.24 ± 0.003 µM,0.43 ± 0.05 µM,0.45 ± 0.03 µM,0.56 ± 0.02 µM,7–15,10–20 fold,,,,,,,,"IC50 ([6]; Homo sapiens, four cancer cell lines, read-out: IC50 values against cancer cell lines (range over the panel)): 0.24 to 0.56 µM"
"Cc1cc(O)c2c3c(ccc2c1)C(=O)c1c(ccc([C@H]2C[C@@H](O)[C@H](O)[C@@H](C)O2)c1O)C3=O [Compound 3, dehydroxyaquayamycin]",49.34 ± 0.17 µM,23.65 ± 0.09 µM,18.81 ± 0.12 µM,16.4 ± 0.19 µM,22.27 ± 0.07 µM,2–3,,,,,,,,,"MIC (MRSE shhs-E1; MRSE shhs-E1, read-out: MIC): 16 µg/mL"
"CCCCCCCCCCCC1=N/C(=C\c2[nH]c(-c3ccc[nH]3)cc2OC)C=C1 [Compound 4, undecylprodigiosin]",12.47 ± 0.09 µM,1.11 ± 0.07 µM,4.67 ± 0.09 µM,0.85 ± 0.01 µM,0.28 ± 0.02 µM,3–45,1–10 fold,> 64 µg/mL,> 64 µg/mL,> 64 µg/mL,> 64 µg/mL,> 64 µg/mL,> 64 µg/mL,> 64 µg/mL,
"CCC1CCCCCCCCC2=N/C(=C\c3[nH]c(-c4ccc[nH]4)cc3OC)C1=C2 (stereo not shown) [Compound 5, metacycloprodigiosin]",,,,,,,,> 64 µg/mL,> 64 µg/mL,> 64 µg/mL,> 64 µg/mL,> 64 µg/mL,> 64 µg/mL,> 64 µg/mL,"IC50 [1]: > 50 µM; IC50 ([2]; MCF7, read-out: in vitro cytotoxicity IC50, MCF-7): > 50 µM; IC50 ([3]; HepG2, read-out: in vitro cytotoxicity IC50, HepG2): > 50 µM; IC50 ([4]; A549, read-out: in vitro cytotoxicity IC50, A549): > 50 µM; IC50 ([5]; CNE-2, read-out: in vitro cytotoxicity IC50, CNE2): > 50 µM"
